Literature values in patent US20040038890A1, “Human voltage-gated potassium channel subunit” (priority 1998, published 2004).

Key:
[1] = tested on: Kv2.1 and Kv2.1/rKv9.3 complexes; details: Kv2.1 compared with Kv2.1/rKv9.3
[2] = tested on: potassium currents in rat pulmonary artery myocytes
Kv2.1/rKv9.3 = Kv2.1/rKv9.3 (Rattus norvegicus, UniProt O88759+P15387); details: Kv2.1/rKv9.3 versus Kv2.1 alone, Xenopus oocytes
Kv2.1/rKv9.3, sequence (P15387 whole entry): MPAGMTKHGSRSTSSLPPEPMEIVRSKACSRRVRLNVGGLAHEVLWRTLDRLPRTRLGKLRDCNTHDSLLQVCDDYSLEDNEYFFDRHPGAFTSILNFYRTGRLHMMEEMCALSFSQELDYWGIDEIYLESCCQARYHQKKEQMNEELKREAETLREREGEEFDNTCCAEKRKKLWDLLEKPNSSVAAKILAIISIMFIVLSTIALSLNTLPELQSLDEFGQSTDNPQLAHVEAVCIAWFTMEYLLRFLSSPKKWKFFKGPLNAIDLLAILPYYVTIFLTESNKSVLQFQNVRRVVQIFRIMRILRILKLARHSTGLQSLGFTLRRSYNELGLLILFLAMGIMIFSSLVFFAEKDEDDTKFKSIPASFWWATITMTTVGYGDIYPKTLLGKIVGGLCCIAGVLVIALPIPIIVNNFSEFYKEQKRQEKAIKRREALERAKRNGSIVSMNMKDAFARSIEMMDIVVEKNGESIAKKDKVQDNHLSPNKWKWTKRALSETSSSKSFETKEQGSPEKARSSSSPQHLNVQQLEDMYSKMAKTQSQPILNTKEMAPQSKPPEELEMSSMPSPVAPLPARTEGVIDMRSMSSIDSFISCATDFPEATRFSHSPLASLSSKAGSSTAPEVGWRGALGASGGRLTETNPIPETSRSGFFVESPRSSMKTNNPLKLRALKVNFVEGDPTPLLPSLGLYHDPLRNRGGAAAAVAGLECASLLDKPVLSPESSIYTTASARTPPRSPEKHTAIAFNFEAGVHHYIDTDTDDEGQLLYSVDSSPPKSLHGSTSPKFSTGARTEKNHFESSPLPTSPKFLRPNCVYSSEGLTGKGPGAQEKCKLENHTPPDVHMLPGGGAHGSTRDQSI
Kv2.1/rKv9.3, sequence (O88759 whole entry): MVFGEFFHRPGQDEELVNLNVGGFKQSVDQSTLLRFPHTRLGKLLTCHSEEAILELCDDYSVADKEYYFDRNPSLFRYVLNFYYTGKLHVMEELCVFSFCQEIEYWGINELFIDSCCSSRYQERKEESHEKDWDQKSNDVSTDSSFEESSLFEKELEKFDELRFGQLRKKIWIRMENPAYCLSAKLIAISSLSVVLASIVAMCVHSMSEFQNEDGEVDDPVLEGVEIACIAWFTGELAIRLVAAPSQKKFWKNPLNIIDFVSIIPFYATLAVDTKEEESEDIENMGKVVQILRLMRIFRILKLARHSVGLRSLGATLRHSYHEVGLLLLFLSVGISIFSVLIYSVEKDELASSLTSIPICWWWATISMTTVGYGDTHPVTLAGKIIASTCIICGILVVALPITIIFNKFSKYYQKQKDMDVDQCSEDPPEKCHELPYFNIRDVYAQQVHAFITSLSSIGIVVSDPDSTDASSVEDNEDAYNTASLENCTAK

| Compound | sensitivity of Kv2.1 and Kv2.1/rKv9.3 complexes [1] | effect on potassium currents [2] | decrease in sensitivity of Kv2.1 when co-expressed with rKv9.3 (Kv2.1/rKv9.3) [fold] |
| --- | --- | --- | --- |
| CCN[C@@H](C)Cc1cccc(C(F)(F)F)c1 [DFF, dex-fenfluramine] | similarly sensitive | inhibit potassium currents | – |
| CC[N+](CC)(CC)CC.[Cl-] [TEA, tetraethylammonium chloride] | – | – | 3 |
| aminorex fumarate | – | inhibit potassium currents | – |
